From US20220265656A1, “COMBINATION THERAPIES WITH IRE1 SMALL MOLECULE INHIBITORS” (Cornell University, priority 2019, published 2022)
Where a name gives a salt, the structure may show the parent alone.

Key:
[1] = molecular target: T1, IRE1a (Homo sapiens, UniProt O75460); experiment: IRE1a Endoribonuclease Nanoluciferase Assay in 293T cells; type: cell-based; design: endogenous in cells; host or cells: 293T cells; details: XBP1 luciferase reporter in 293T cells, ER stressor
Description: Compounds disclosed herein were assessed for disruption of IRE1 signaling using a IRE1a Endoribonuclease Nanoluciferase Assay. Briefly, 2.5×10^6 293T cells were seeded in a 10 cm^2 tissue culture plate. About 24 hours later, the cells were transfected with Effectene. In a 15 mL tube, the following was added: 2 ug XBP1 luciferase reporter plasmid (PGK-Luc2-P2A-XBP1u-Nanoluciferase-PEST); 300 ul EC buffer; and 16 ul Enhancer, followed by incubation at room temp for 5 minutes. Next, 60 ul Effectene (Qiagen 301427) was added, followed by incubation at room temperature for 10 minutes, 2.6 mL cDMEM media was added. Old media was aspirated from the cells, followed by addition of 7 mL fresh media. Full transfection mixture was added dropwise to cells. Cells were incubated for 6 hours, followed by trypsinization, centrifugation and resuspension in 11 mL fresh cDMEM media, 100 uL of cells were plated per a well in a 96 well plate. A day later, ER stressors of choice +/−inhibitors were added. To harvest, media was aspirated from cells completely, then 50 uL 1× passive lysis buffer (Promega: E1941) was added per well and put on shaker (300 rpm) for 30 minutes at room temperature. Cells were centrifuged, and 15 uL sample per well was added to a new, opaque white 384 well plate (Corning 3570), 15 uL OneGlo (nanoluciferase kit, Promega N1630) was added. Plates were spun down, placed on shaker (300 rpm) for 10 minutes. Plates were read on luminometer, 1000 ms integration time per well, 15 uL Stop and Glo (nanoluciferase kit) was added. Plates were spun down, placed on shaker (300 rpm) for 10 minutes. Plates were read on luminometer, 1000 ms second integration time per well. Recordings are provided below in Table 4.

[2] = molecular target: T1, IRE1a; experiment: In vitro FRET assay (IRE1a cleavage of XBP1 RNA probe); type: biochemical; design: purchased SignalChem; details: 2 nM IRE1a
Description: In vitro FRET assay was performed to evaluate the ability of select compounds to inhibit IRE1, the results of which are summarized in Table 3. To perform the in vitro FRET assay, 1× complete assay buffer (CAB; […], 50 mM sodium citrate pH 7.15, 1 mM magnesium acetate, 0.02% tween 20) was used to dilute SignalChem IRE1a protein to a final concentration of 2 nM. Selected compounds were serially diluted with DMSO in a non-binding black 384-well plate for a total of 15 ul in each well, 2 ul of the serially diluted compound or DMSO control were then added to new wells containing 98 ul of 1×CAB, for a total volume of 100 ul, 10 ul of which were then transferred to wells of a new plate, 5 ul of the diluted IRE1a was then added to each well, 5 ul of a […] XBP1 RNA probe was then added to each well. Fluorescence was then read over 30 minutes in kinetic mode (485/515 nm).
Two RNA probes were used, XBP1 wildtype (SEQ ID NO: 2) which is able to be spliced by active IRE1a or XBP1 mutant (SEQ ID NO: 3) which is unable to be spliced. Each probe contained a 5′ 6-FAM modification and a 3′ IOWA Black FQ modification. […]

T1 sequence (O75460 19-977): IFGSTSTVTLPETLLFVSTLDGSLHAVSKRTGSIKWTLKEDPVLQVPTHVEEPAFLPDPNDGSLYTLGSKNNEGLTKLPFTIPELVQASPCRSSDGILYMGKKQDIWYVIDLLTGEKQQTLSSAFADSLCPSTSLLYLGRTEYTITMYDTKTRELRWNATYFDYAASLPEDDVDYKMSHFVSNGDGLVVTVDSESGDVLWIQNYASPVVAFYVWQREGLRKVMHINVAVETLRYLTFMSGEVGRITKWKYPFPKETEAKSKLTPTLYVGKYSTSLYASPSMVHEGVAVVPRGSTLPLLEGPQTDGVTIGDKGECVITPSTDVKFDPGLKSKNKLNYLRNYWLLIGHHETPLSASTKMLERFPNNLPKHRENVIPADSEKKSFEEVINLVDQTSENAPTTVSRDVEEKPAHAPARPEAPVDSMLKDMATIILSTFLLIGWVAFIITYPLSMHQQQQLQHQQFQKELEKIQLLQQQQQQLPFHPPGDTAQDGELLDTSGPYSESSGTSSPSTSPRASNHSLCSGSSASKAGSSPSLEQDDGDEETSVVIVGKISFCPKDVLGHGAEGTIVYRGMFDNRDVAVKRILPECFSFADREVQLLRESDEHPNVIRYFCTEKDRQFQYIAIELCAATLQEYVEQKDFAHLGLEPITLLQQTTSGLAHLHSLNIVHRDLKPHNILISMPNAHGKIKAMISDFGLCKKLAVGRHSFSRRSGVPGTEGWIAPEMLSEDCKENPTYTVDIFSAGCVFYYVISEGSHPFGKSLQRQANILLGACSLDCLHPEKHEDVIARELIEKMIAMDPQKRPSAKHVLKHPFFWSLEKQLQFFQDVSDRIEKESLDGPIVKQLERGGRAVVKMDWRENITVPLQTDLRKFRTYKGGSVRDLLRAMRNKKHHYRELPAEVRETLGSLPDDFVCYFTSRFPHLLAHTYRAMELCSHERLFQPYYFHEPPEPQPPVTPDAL

| Compound | EC50 [1] [nM] | IC50 [2] [nM] | Mean EC50 [1] |
| --- | --- | --- | --- |
| CCc1cc(-c2ccc(NS(=O)(=O)c3ccccc3Cl)nc2OC)cc2cnc(N[C@H]3CC[C@H](N(C)C)CC3)nc12 [99; Formic Acid Salt] | ≤ 5 | ≤ 5 | – |
| CCc1c(F)c(-c2cc(F)c(NS(=O)(=O)c3ccccc3Cl)nc2C)cc2cnc(N[C@H]3CC[C@H](N(C)C)CC3)nc12 [162; Formic Acid Salt] | ≤ 5 | ≤ 5 | – |
| CCc1cc(-c2ccc(NS(=O)(=O)c3ccccc3Cl)nc2OC)cc2cnc(N[C@H]3CC[C@@H](N(C)C)CC3)nc12 [141; Formic Acid Salt] | 100 to 10000 | ≤ 5 | – |
| CCc1cc(-c2ccc(NS(=O)(=O)c3ccccc3Cl)nc2C)cc2cnc(N[C@H]3CC[C@H](N(C)CC(F)(F)F)CC3)nc12 [126; Formic Acid Salt] | – | 50 to 100 | – |
| Cc1nc(NS(=O)(=O)c2ccccc2Cl)ccc1-c1cc(C(C)(F)F)c2nc(N[C@H]3CC[C@H](N(C)C)CC3)ncc2c1 [131; Formic Acid Salt] | ≤ 5 | ≤ 5 | – |
| CCc1cc(-c2ccc(NS(=O)(=O)c3ccccc3Cl)nc2OC)cc2cnc(N[C@H]3CC[C@@](C)(N(C)C)CC3)nc12 [143; Formic Acid Salt] | – | 5 to 50 | – |
| CCc1cc(-c2ccc(NS(=O)(=O)c3ccccc3Cl)nn2)cc2cnc(N[C@H]3CC[C@H](NC)CC3)nc12 [61; Formic Acid Salt] | ≤ 5 | ≤ 5 | – |
| COc1nc(NS(=O)(=O)c2ccccc2Cl)c(F)cc1-c1cc(F)c2nc(N[C@H]3CC[C@H](N(C)C)CC3)ncc2c1 [155; Formic Acid Salt] | 50 to 100 | ≤ 5 | – |
| CCc1cc(-c2cc(NS(=O)(=O)c3ccccc3Cl)n[nH]2)cc2cnc(N[C@H]3CC[C@H](N)CC3)nc12 [29; Formic Acid Salt] | 100 to 10000 | – | – |
| CCc1cc(-c2ccc(N(C)S(=O)(=O)c3ccccc3Cl)cc2C)cc2cnc(N[C@H]3CC[C@H](N)CC3)nc12 [31; Formic Acid Salt] | – | 100 to 10000 | – |
| CCc1cc(-c2ccc(NS(=O)(=O)c3cccc(F)c3Cl)nc2C)cc2cnc(N[C@H]3CC[C@H](N(C)C)CC3)nc12 [158; Formic Acid Salt] | ≤ 5 | ≤ 5 | – |
| Cc1nc(NS(=O)(=O)c2ccccc2Cl)c(F)cc1-c1ccc2nc(N[C@H]3CC[C@H](N(C)C)CC3)ncc2c1 [153; Formic Acid Salt] | 5 to 50 | ≤ 5 | – |
| CCc1cc(-c2ccc(NS(=O)(=O)c3ccccc3Cl)nc2C)cc2cnc(N[C@H]3CC[C@H](N(C)CC4CCC4)CC3)nc12 [130; Formic Acid Salt] | ≤ 5 | ≤ 5 | – |
| CCc1cc(-c2cnc(NS(=O)(=O)c3ccccc3Cl)c(F)c2)cc2cnc(N[C@H]3CC[C@H](N(C)C)CC3)nc12 [95; Formic Acid Salt] | ≤ 5 | ≤ 5 | – |
| CCc1cc(-c2ccc(NS(=O)(=O)c3ccccc3Cl)nc2C)cc2cnc(N[C@H]3CC[C@H](N(C)CCOC)CC3)nc12 [132; Formic Acid Salt] | ≤ 5 | ≤ 5 | – |
| COc1nc(NS(=O)(=O)c2ccccc2Cl)ccc1-c1cc(C(F)(F)F)c2nc(N[C@H]3CC[C@H](N(C)C)CC3)ncc2c1 [135; Formic Acid Salt] | ≤ 5 | ≤ 5 | – |
| CCc1cc(-c2ccc(NS(=O)(=O)c3cccc(Cl)c3Cl)nc2C)cc2cnc(N[C@H]3CC[C@H](N(C)C)CC3)nc12 [152; Formic Acid Salt] | ≤ 5 | ≤ 5 | – |
| Cc1nc(NS(=O)(=O)c2ccccc2Cl)c(F)cc1-c1cc(F)c2nc(N[C@H]3CC[C@H](N(C)C)CC3)ncc2c1 [156; Formic Acid Salt] | – | 100 to 10000 | – |
| COc1nc(NS(=O)(=O)c2ccccc2Cl)c(F)cc1-c1cc(C)c2nc(N[C@H]3CC[C@@H](N(C)C)CC3)ncc2c1 [147; Formic Acid Salt] | – | 5 to 50 | – |

| Compound | EC50 [1] [nM] | IC50 [2] [nM] | Mean EC50 [1] |
| --- | --- | --- | --- |
| CCc1cc(-c2cc(F)c(NS(=O)(=O)c3ccccc3Cl)nc2OC)cc2cnc(N[C@H]3CC[C@H](N(C)C)CC3)nc12 [128; Formic Acid Salt] | ≤ 5 | ≤ 5 | – |
| CCc1cc(-c2nnc(NS(=O)(=O)c3ccccc3Cl)cc2OC)cc2cnc(N[C@H]3CC[C@H](N(C)C)CC3)nc12 [159; Formic Acid Salt] | 5 to 50 | ≤ 5 | – |
| CCc1nc(NS(=O)(=O)c2ccccc2Cl)ccc1-c1cc(CC)c2nc(N[C@H]3CC[C@H](N(C)C)CC3)ncc2c1 [117; Formic Acid Salt] | ≤ 5 | ≤ 5 | – |
| CCc1cc(-c2cc(F)c(NS(=O)(=O)c3ccccc3Cl)nc2OC)cc2cnc(N[C@H]3CC[C@H](NC)CC3)nc12 [127; Formic Acid Salt] | ≤ 5 | ≤ 5 | – |
| CCc1cc(-c2ccc(NS(=O)(=O)c3ccccc3C)nc2OC)cc2cnc(N[C@H]3CC[C@H](N(C)C)CC3)nc12 [119; Formic Acid Salt] | ≤ 5 | ≤ 5 | – |
| CCc1cc(-c2cnc(NS(=O)(=O)c3ccccc3Cl)nc2OC)cc2cnc(N[C@H]3CC[C@H](N(C)C)CC3)nc12 [154; Formic Acid Salt] | ≤ 5 | ≤ 5 | – |
| CCc1c(F)c(-c2ccc(NS(=O)(=O)c3ccccc3Cl)nc2C)cc2cnc(N[C@H]3CC[C@H](N(C)C)CC3)nc12 [161; Formic Acid Salt] | ≤ 5 | ≤ 5 | – |
| CCc1cc(-c2cc(F)c(NS(=O)(=O)c3ccccc3Cl)nc2OC)cc2cnc(N[C@H]3CC[C@@H](N(C)C)CC3)nc12 [142; Formic Acid Salt] | – | 5 to 50 | – |
| CN[C@H]1CC[C@H](Nc2ncc3cc(-c4cc(F)c(NS(=O)(=O)c5ccccc5Cl)nc4OC)ccc3n2)CC1 [150; Formic Acid Salt] | 5 to 50 | ≤ 5 | – |
| COc1nc(NS(=O)(=O)c2ccccc2Cl)c(F)cc1-c1ccc2nc(N[C@H]3CC[C@H](N(C)C)CC3)ncc2c1 [149; Formic Acid Salt] | 5 to 50 | ≤ 5 | – |
| N[C@H]1CC[C@H](Nc2ncc3cc(-c4nnc(NS(=O)(=O)c5ccccc5Cl)s4)ccc3n2)CC1 [89; Formic Acid Salt] | 100 to 10000 | – | – |
| CCc1cc(-c2cnc(NS(=O)(=O)c3ccccc3Cl)cc2OC)cc2cnc(N[C@H]3CC[C@H](N)CC3)nc12 [92; Formic Acid Salt] | 100 to 10000 | – | – |
| N[C@H]1CCC[C@@H](Nc2ncc3cc(-c4ccc(NS(=O)(=O)c5ccccc5Cl)c(F)c4)ccc3n2)C1 [75; Formic Acid Salt] | 100 to 10000 | ≤ 5 | – |
| COc1nc(NS(=O)(=O)c2ccccc2Cl)ccc1-c1cc(C)c2nc(N[C@H]3CC[C@@H](N(C)C)CC3)ncc2c1 [139; Formic Acid Salt] | – | 5 to 50 | – |
| CCc1cc(-c2ccc(NS(=O)(=O)c3ccccc3Cl)nc2C)cc2cnc(N[C@H]3CC[C@H](N(C)C)C[C@@H]3F)nc12 [151; Formic Acid Salt] | ≤ 5 | ≤ 5 | – |
| N[C@H]1CC[C@@H](Nc2ncc3cc(-c4ccc(NS(=O)(=O)c5ccccc5Cl)c(F)c4)ccc3n2)C1 [80; Formic Acid Salt] | 100 to 10000 | – | – |
| CCc1cc(-c2ccc(NS(=O)(=O)c3ccccc3Cl)c(F)c2)cc2cnc(N[C@@H]3CCC[C@H](N)C3)nc12 [72; Formic Acid Salt] | 100 to 10000 | – | – |
| CCc1cc(-c2ccc(NS(=O)(=O)c3ccccc3Cl)c(F)c2)cc2cnc(N[C@H]3CC[C@H](N4CCCC4)CC3)nc12.O=CO [88; Formic Acid Salt] | – | – | , |
